The text below walks through data of paper PMC2777269 (Nature medicine, 2002).

Where two headings read alike, the source gives them in different places. Ends that are not written are not given here. * marks the point of attachment. 125I = [125I]*

The test system of assay [1] is human PMNs. The assay can be described thus: Human PMN chemotaxis. The settings on record: n = 3.
The subject of assay [2] is recombinant ALXR/FPRL1 (CHO-Gqo-ALXR cells). The assay can be described thus: Chemotaxis of CHO cells expressing ALXR and Gqo chimera. The settings on record: ATLa1 100 nM, Ac2-26 100 μM; 4 h, 37 °C; n = 3.
Assay [3] relates to 15-epi-LXA4. The assay can be described thus: 15-epi-LXA4 generation in murine air-pouch exudates. In kind it is in vivo, Swiss Albino mice. The following applies: ASA 300 μg; 4 and 16 h; n = 8.
The subject of assay [4] is Zymosan A-driven PMN infiltration. The assay can be described thus: Zymosan A-initiated PMN infiltration, 6-day-old murine air pouch. The following applies: 4 h; for inhibition of Zymosan A-driven PMN infiltration: mean, n = 8.
The target of assay [5] is T1, human PMNs (ALXR/FPRL1) (Homo sapiens, UniProt P25090).
T1 sequence (P25090 1-351): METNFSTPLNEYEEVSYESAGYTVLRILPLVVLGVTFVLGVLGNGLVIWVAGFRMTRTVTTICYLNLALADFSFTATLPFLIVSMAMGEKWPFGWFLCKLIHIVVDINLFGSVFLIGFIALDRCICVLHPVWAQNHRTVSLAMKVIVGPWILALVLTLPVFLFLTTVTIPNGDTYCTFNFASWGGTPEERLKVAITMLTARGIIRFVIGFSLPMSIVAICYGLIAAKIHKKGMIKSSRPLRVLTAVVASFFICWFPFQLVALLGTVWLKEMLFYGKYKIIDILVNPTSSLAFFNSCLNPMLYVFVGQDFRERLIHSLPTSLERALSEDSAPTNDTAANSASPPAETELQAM
The assay can be described thus: [^125I-Tyr]Ac2-26 binding, isolated human PMNs in suspension. The following applies: 30 nM [^125I-Tyr]Ac2-26, 40 min, 4 °C, duplicates, n = 3.

For assay [6], the target named is T2, adherent human PMNs (ALXR/FPRL1) (Homo sapiens, UniProt P25090).
T2 sequence (P25090 1-351): T1 sequence (P25090 1-351)
The assay can be described thus: [^125I-Tyr]Ac2-26 binding, adherent human PMNs. The settings on record: 30 nM [^125I-Tyr]Ac2-26, duplicates, n = 3.

Assay [7] addresses T3, recombinant ALXR/FPRL1 (Homo sapiens, UniProt P25090).
T3 sequence (P25090 1-351): T1 sequence (P25090 1-351)
The settings on record: HEK293-ALXR, 30 nM [^125I-Tyr]Ac2-26, 40 min, 4 °C; duplicates, n = 3.

The subject of assay [8] is monocytes/macrophages. The following applies: nonphlogistic; cited from earlier work.
Assay [9] deals with human LTB4 receptor (BLT1). The settings on record: BLT1-transfected HEK293 cells; cited from earlier work.
The subject of assay [10] is PMN transmigration and adhesion. The following applies: cited from earlier work.
The subject of assay [11] is human PMNs. The assay can be described thus: Ca^2+ mobilization in Fura2-AM-loaded human PMNs.
The target in assay [12] is T4, human ALXR (ALXR/FPRL1) (Homo sapiens, UniProt P25090).
T4 sequence (P25090 1-351): T1 sequence (P25090 1-351)
The settings on record: at much higher concentrations than LXA4; cited from earlier work.

Assay [13] deals with ALXR/FPRL1. The settings on record: cited from earlier work.
In assay [14] the test system is human PMN oxidative burst. The following applies: cited from earlier work.
Assay [15] concerns ALXR/FPRL1. The assay can be described thus: ANXA1/ALXR co-immunoprecipitation, human PMNs. The format is binding. The settings on record: non-adherent human PMNs (control).
The subject of assay [16] is ANXA1. The assay can be described thus: ANXA1 generation in murine air-pouch exudates. In kind it is in vivo, Swiss Albino mice. The settings on record: 4 h versus 16 h; n = 8.
The subject of assay [17] is formyl peptide receptors (FPRs). The settings on record: partially diminished; cited from earlier work.
Assay [18] relates to PMN transmigration and phagocytosis. The following applies: in vitro and in vivo; cited from earlier work.
In assay [19] the target is T5, human recombinant lipoxin A4 receptor (ALXR/FPRL1) expressed on HEK293 cells (human, UniProt P25090 1-351).
T5 sequence (looked up): T1 sequence (P25090 1-351)
The assay can be described thus: radioligand binding.

In assay [20] the target is T5, human recombinant lipoxin A4 receptor …. The assay can be described thus: radioligand binding. The source holds these as a separate data set.

`CCCCCC(C)(O)/C=C/C=C\C=C\C=C\[C@@H](O)[C@@H](O)CCCC(=O)O` (mixture of isomers) [ATLa1, 15(R/S)-methyl-LXA4]: the “block of Ac2-26-evoked chemotaxis, human PMNs” value in assay [1] (ATLa1 10 or 100 nM, 30 min, 37 °C, Ac2-26 1–10 μM) was “clearly blocked Ac2-26 evoked chemotaxis”. In assay [1] (Ac2-26 1–10 μM or ATLa1 alone 10–100 nM), the “chemotactic activity, human PMNs” value is reported as “did not evoke chemotaxis”. For the same molecule, the “chemotaxis responses, CHO-Gqo-ALXR cells” value in [2] is “clear chemotaxis responses”.
As to `CC(=O)Oc1ccccc1C(=O)O` [ASA, Aspirin, reference compound], the “15-epi-LXA4 (ATL) generation in ASA-treated animals” value in assay [3] is “generated and present in ASA-treated animals at 4 hours that diminished by 16 hours”. Also, the “inhibition of Zymosan A-driven PMN infiltration” value in [4] (ASA alone 1 mg into pouch 15 min before Zymosan A (1 mg)) is given as 36%.
Regarding `O=C(O)CCC[C@H](O)[C@H](O)/C=C/C=C/C=C\C=C\[C@@H](O)COc1ccc(F)cc1` [ATLa, 15-epi-16-(para-fluoro)-phenoxy-LXA4], in [4] (5 μg per mouse (~12 nmol) i.v. 15 min before Zymosan A, n = 6–8), the “inhibition of PMN infiltration, i.v. ATLa 5 μg” value is reported as ~ 40%. In assay [4] (ATLa 0.5–5 μg, Ac2-26 5–100 μg i.v., n = 6–8), the “inhibition of PMN infiltration, administered (in words)” value is “potent inhibitors of PMN infiltration”.
Turning to `C[C@@H]1C[C@H]2[C@@H]3CCC4=CC(=O)C=C[C@]4(C)[C@@]3(F)[C@@H](O)C[C@]2(C)[C@@]1(O)C(=O)CO` [DEX, dexamethasone, reference compound], the “inhibition of Zymosan A-driven PMN infiltration” value in assay [4] (DEX alone 10 μg into pouch 15 min before Zymosan A (1 mg)) amounted to 53%.
Regarding `CCCCC[C@H](O)/C=C/C=C\C=C\C=C\[C@@H](O)[C@@H](O)CCCC(=O)O` [LXA4, lipoxin A4, reference compound], the “competition for [^125I-Tyr]Ac2-26 binding to human PMN (in words)” value in [5] (suspension) is “competed for [^125I-Tyr]Ac2-26 peptide binding to human PMN”. The “competition for specific [^125I-Tyr]Ac2-26 binding, adherent PMNs (in words)” value in assay [6] is given as “retained their ability to compete”. Moreover, the “competition for specific [^125I-Tyr]Ac2-26 binding (in words)” value in [7] is “specifically competed”. The “enhanced uptake of apoptotic neutrophils by monocytes/macrophages” value in assay [8] is “enhance the uptake of apoptotic neutrophils”. In [9], the “competition for [^3H]LTB4 binding” value was “neither LXA4 (ref. [18]) nor Ac2-26 peptide competed”.
Take `O=c1c(-c2ccc(O)cc2)coc2cc(O)cc(O)c12` [genistein, reference compound]: the “modulation of LXA4-regulated PMN transmigration and adhesion” value in assay [10] is “modulates LXA4-regulated PMN transmigration and adhesion”. For the same molecule, the “block of Ac2-26 calcium mobilization response” value in [11] (Supplementary Fig. B, panel c) is “partially blocked”.
On to “Ac2-6: ANXA1-derived peptide (Ac-AMVSE; UniProt P04083 2-6, looked up, fragment)”, for which the “inhibition of PMN infiltration, i.v. peptides (in words)” value in assay [4] (i.v. tail vein 15 min prior to 1 mg Zymosan A, 6–12 mice) is recorded as “inhibited PMN infiltration in a dose-dependent fashion”.

B1: SAA: a proteolytic product of the acute phase response (protein, UniProt P0DJI8 19-122, looked up)
Serum amyloid A-1 protein: RSFFSFLGEAFDGARDMWRAYSDMREANYIGSDKYFHARGNYDAAKRGPGGAWAAEVITDARENIQRFFGHGAEDSLADQAANEWGRSGKDPNHFRPAGLPEKY
For the molecule B1, the IC50 (usually the midpoint of a concentration-inhibition curve) in [5] (read-out: apparent IC50, competition for specific [^125I-Tyr]Ac2-26 binding, human PMNs in suspension) is about 1000 nM. In addition, the “competition for specific [^125I-Tyr]Ac2-26 binding, adherent PMNs (in words)” value in [6] is recorded as “retained their ability to compete”. In [12], the “competition for specific [^3H]LXA4 binding (in words)” value was “competes for specific [^3H]LXA4 binding”. The “activation of HEK293 cells expressing ALXR/FPRL1” value in assay [13] is “activates HEK293 cells expressing ALXR/FPRL1”. For the same molecule, the “inhibition of human PMN oxidative burst” value in [14] is reported as “inhibits human PMN oxidative burst”.

B2: ANXA1: protein of 346 amino acids and a member of the annexin superfamily, highly abundant PMN-derived protein induced by glucocorticoids (protein, UniProt P04083 2-346, looked up)
Annexin A1: AMVSEFLKQAWFIENEEQEYVQTVKSSKGGPGSAVSPYPTFNPSSDVAALHKAIMVKGVDEATIIDILTKRNNAQRQQIKAAYLQETGKPLDETLKKALTGHLEEVVLALLKTPAQFDADELRAAMKGLGTDEDTLIEILASRTNKEIRDINRVYREELKRDLAKDITSDTSGDFRNALLSLAKGDRSEDFGVNEDLADSDARALYEAGERRKGTDVNVFNTILTTRSYPQLRRVFQKYTKYSKHDMNKVLDLELKGDIEKCLTAIVKCATSKPAFFAEKLHQAMKGVGTRHKALIRIMVSRSEIDMNDIKAFYQKMYGISLCQAILDETKGDYEKILVALCGGN
In the case of B2, the “co-immunoprecipitation of ANXA1 with ALXR/FPRL1, non-adherent PMNs” value in assay [15] is recorded as “not co-immunoprecipitated”. In assay [16], the “ANXA1 generation in exudates” value was “low at 4 hours and much higher at 16 hours”. Besides, the “competition for specific [^125I-Tyr]Ac2-26 binding (in words)” value in [7] was “competed for [^125I-Tyr]Ac2-26 binding with similar affinity”. In assay [17], the “reduction of ANXA1 interactions with circulating leukocytes or peritoneal macrophages in FPR-deficient mice” value is ~ 40%. The “inhibition of PMN transmigration and phagocytosis” value in assay [18] was “potent inhibitors of PMN transmigration and phagocytosis”.

B3: ANXA1-derived peptide Ac2-26 (unlabelled) (peptide)
peptide: Ac-AMVSEFLKQAWFIENEEQEYVQTVK
Take B3: the half-maximal inhibitory concentration (IC50) in assay [19] is about 300 nM.

B4: hrANXA1: human recombinant annexin 1 (protein)
chain: MAMVSEFLKQAWFIENEEQEYVQTVKSSKGGPGSAVSPYPTFNPSSDVAALHKAIMVKGVDEATIIDILTKRNNAQRQQIKAAYLQETGKPLDETLKKALTGHLEEVVLALLKTPAQFDADELRAAMKGLGTDEDTLIEILASRTNKEIRDINRVYREELKRDLAKDITSDTSGDFRNALLSLAKGDRSEDFGVNEDLADSDARALYEAGERRKGTDVNVFNTILTTRSYPQLRRVFQKYTKYSKHDMNKVLDLELKGDIEKCLTAIVKCATSKPAFFAEKLHQAMKGVGTRHKALIRIMVSRSEIDMNDIKAFYQKMYGISLCQAILDETKGDYEKILVALCGGN
As to B4, in assay [11] (Ac2-26 10 μM, hrANXA1 0.5 μM), the “effect on cellular response to subsequent fMLP (in words)” value is “did not affect the cellular response”.

B5: ANXA1-derived peptide Ac2-12 (peptide)
peptide: Ac-AMVSEFLKQAW
Regarding B5, the half-maximal inhibitory concentration (IC50) in assay [19] was about 300 nM; in assay [20] it was about 20000 nM.

B6: [125I-Tyr]Ac2-26 peptide (radio-iodinated ANXA1-derived peptide Ac2-26) (peptide)
peptide: Ac-AMVSEFLKQAWFIENEEQEY(125I)VQTVK
On to B6, for which, in assay [20], the Kd (in general, the free concentration of one partner at which half of the binding sites on the other are occupied at equilibrium, for simple one-to-one binding) is about 900 nM.
